Values belong to the compound of their own block, whether it stands above or below them.
What was measured:
[1] = tested on: MEF2 transcriptional targets (Cx37, Cx40, KLF2); experiment: MEF2 target expression in PAH PAECs (RT-PCR); format: cell-based, human; conditions: 1 μM for 24 h, vs. control/DMSO
Protocol: (§1) PAECs were isolated from normal and PAH explanted donor lungs, as described previously. Additional control PAECs were obtained from Lonza. PAECs from eleven control subjects, seven subjects with IPAH and three subjects with FPAH were studied. In brief, human pulmonary arteries were dissected from the lungs to the distal small arterioles, and PAECs were harvested from the isolated pulmonary arterial tree. PAECs were grown in EBM-2 basal medium supplemented with EGM-2 (Lonza) on fibronectin-coated plates. Cells were passaged at 70-80% confluency, and primary cultures of passages 3 to 7 were used in experiments. All apelin stimulations were done using apelin-13 peptide at 1 μM (Sigma). TSA (Sigma), MC1568 (Selleck Chemicals and DC Chemicals), TMP269 (DC Chemicals), and Tasquinimod (DC Chemicals) were dissolved in DMSO (Sigma) and used at the indicated doses. Total RNA was extracted with an RNA isolation kit, (miRNeasy RNA, Qiagen). Purified RNA was reverse transcribed with a cDNA synthesis kit (iScript cDNA Synthesis Kit, Bio-Rad). RT-PCR was performed with TaqMan probes for both genes and miRNAs (Applied Biosystems). All miRNA data were normalized to the internal control small RNAs RNU19 and HY3 for human samples and U87 for rat samples. For the mRNA samples, ribosomal 18S was used as an internal control. […]

[2] = tested on: FGF2; experiment: FGF2 expression in PAH PAECs; format: cell-based, human; conditions: 1 μM for 24 h
Protocol: as §1

[3] = tested on: PAH PAECs; experiment: PAH PAEC proliferation assay; format: cell-based, human; conditions: PAH PAECs vs. DMSO
Protocol: PAECs (5×10^3 cells per well) were plated in a 96-well plate and treated with DMSO or MC1568. Cell proliferation was measured by a colorimetric kit for determining cell viability (CellTiter 96 AQueous One Solution Cell Proliferation Assay, Promega) per manufacturer's protocol.

[4] = tested on: PAH PAECs; experiment: PAH PAEC migration assay; format: cell-based, human; conditions: 1 μM
Protocol: PAECs were grown to post-confluence in 24-well plates, and then subjected to injury using a plastic pipette tip. They were then treated with vehicle or MC1568 (1 μM). The cells were allowed to migrate for 8 h, and the gap distance was calculated in at least five randomly selected microscopic fields per each sample.

[5] = tested on: rats with experimental pulmonary hypertension; experiment: Experimental pulmonary hypertension models in rats (MCT and SU-5416/hypoxia): hemodynamic, morphometric and cardiac analyses; format: in vivo, rat; conditions: for right ventricular hypertrophy (right ventricle to left ventricle plus septum weight ratios): SU5416/hypoxia, vs. control; for right ventricular systolic pressures: SU-5416/hypoxia, vs. DMSO
Protocol: Rat lung tissues were fixed and stained as previously described (Nature medicine 19, 74-82 (2013)). Standard methods (Trichrome Stain, Sigma) were used to stain for collagen in cardiac sections.
(§2) Male Sprague Dawley rats (200-250 g; Charles River Laboratories) were subcutaneously injected with monocrotaline (Sigma) (60 mg per kg body weight) for the MCT model. For the SUGEN model, SU-5416 (Sigma) was resuspended in DMSO (Sigma) and injected subcutaneously (20 mg per kg body weight). Rats were subsequently exposed to hypoxia (10% FiO2) for 2 weeks. Rats were given intraperitoneal administration of either the vehicle (DMSO), MC1568 (Sellek Chemicals and DC Chemicals) (50 mg per kg body weight), TMP269 (DC Chemicals) (intraperitoneal injection of 50 mg/kg/day for two weeks), or Tasquinimod (DC Chemicals) (oral gavage of 10 mg/kg/day for two weeks) daily as indicated (FIG. 13).
Right ventricular systolic pressure (RVSP) measurements were performed at the designated time points under isoflurane by inserting a catheter (Millar Instruments) into the right jugular vein as described previously.^21 Lungs were perfused with normal saline and fixed in 4% paraformaldehyde overnight for immunohistochemistry or snap frozen in liquid nitrogen for protein and RNA analyses. Hearts were dissected and weighed for calculation of the right ventricle to the left ventricle plus septum weight ratio. The same full section in the midportion of the left lung parallel to the hilum was used and embedded in the same manner for lung morphometric analyses. Pulmonary artery muscularization was assessed at ×200 magnification after staining for vWF and SMA by calculating the ratio of the number of muscularized peripheral pulmonary arteries to the number of total peripheral pulmonary arteries (with diameters less than 75 μm) in five random fields per lung (with each field at ×200 magnification). The total number of vessels less than 75 μm was expressed as the number of vessels counted per random microscope field (five random fields per lung at ×200 magnification). Pulmonary arteries with proliferating cells were assessed in PCNA stained lung sections. Vessels with one or more PCNA staining cell were considered to be PNCA positive. All measurements were carried out by investigators blinded to the experimental condition.

[6] = tested on: MEF2 transcriptional targets (Cx37, Cx40 and KLF2); experiment: MEF2 transcriptional target expression in PH model rats; format: in vivo, rat; conditions: PH models, MC1568 50 mg per kg intraperitoneal daily, vs. DMSO
Protocol: Total RNA was extracted with an RNA isolation kit, (miRNeasy RNA, Qiagen). Purified RNA was reverse transcribed with a cDNA synthesis kit (iScript cDNA Synthesis Kit, Bio-Rad). RT-PCR was performed with TaqMan probes for both genes and miRNAs (Applied Biosystems). All miRNA data were normalized to the internal control small RNAs RNU19 and HY3 for human samples and U87 for rat samples. For the mRNA samples, ribosomal 18S was used as an internal control. Individual RT-PCRs were performed on a CFX96 (Bio-Rad) according to the manufacturer's instructions. […]
Right ventricular systolic pressure (RVSP) measurements were performed at the designated time points under isoflurane by inserting a catheter (Millar Instruments) into the right jugular vein as described previously.^21 Lungs were perfused with normal saline and fixed in 4% paraformaldehyde overnight for immunohistochemistry or snap frozen in liquid nitrogen for protein and RNA analyses. […] Pulmonary artery muscularization was assessed at ×200 magnification after staining for vWF and SMA by calculating the ratio of the number of muscularized peripheral pulmonary arteries to the number of total peripheral pulmonary arteries (with diameters less than 75 μm) in five random fields per lung (with each field at ×200 magnification). […] Pulmonary arteries with proliferating cells were assessed in PCNA stained lung sections. […]

[7] = tested on: FGF2; experiment: FGF2 expression in lungs of PH model rats; format: in vivo, rat; conditions: two PH models, lung homogenates, MC1568 50 mg per kg intraperitoneal daily
Protocol: as §2
Right ventricular systolic pressure (RVSP) measurements were performed at the designated time points under isoflurane by inserting a catheter (Millar Instruments) into the right jugular vein as described previously.^21 Lungs were perfused with normal saline and fixed in 4% paraformaldehyde overnight for immunohistochemistry or snap frozen in liquid nitrogen for protein and RNA analyses. […] The total number of vessels less than 75 μm was expressed as the number of vessels counted per random microscope field (five random fields per lung at ×200 magnification). Pulmonary arteries with proliferating cells were assessed in PCNA stained lung sections. […]

[8] = tested on: human coronary artery endothelial cells; experiment: Caspase 3 cleavage in human coronary artery endothelial cells; format: cell-based
[9] = target: T1, HDAC4 (Homo sapiens, UniProt P56524); experiment: HDAC4 degradation in PAECs from a PAH patient (western blot); format: cell-based; conditions: 1 μM for 24 hr
T1 construct: phosphorylation of endogenously expressed HDAC4 and HDAC5; endogenous in cells; host or cells: PAECs from PAH patient(s)

[10] = target: T2, HDAC5 (Homo sapiens, UniProt Q9UQL6); experiment: HDAC5 degradation in PAECs from a PAH patient (western blot); format: cell-based; conditions: 1 μM for 24 hr
T2 construct: phosphorylation of endogenously expressed HDAC4 and HDAC5; endogenous in cells; host or cells: PAECs from PAH patient(s)

[11] = tested on: class IIa HDACs; conditions: cited from earlier work
[12] = pulmonary artery banding, previous study; cited from earlier work
[13] = tested on: MEF2; conditions: PAH PAECs, apelin 1 μM for 24 h
Protocol: Either control PAECs or PAH PAECs were transfected and lysed in lysis buffer (Promega). Renilla luciferase was used for normalization. Dual Luciferase Reporter System (Promega) was used according to the manufacturer's protocol. All experiments were performed three times in triplicates.

[14] = tested on: HDAC4-GFP; conditions: PAH PAECs, apelin 1 μM for 1 h
Protocol: (§3) For the apelin effect on HDAC4/5 translocation, PAECs plated on glass bottom culture dish (Mat-Tek) were transfected with GFP-tagged HDAC4 and HDAC5 expression vectors for 24 hours. Cells were imaged using a Nikon Eclipse Ti confocal microscopy before and after treatment with apelin 13 (1 μM for 1 h at 37° C.).

[15] = tested on: HDAC5-GFP; conditions: PAH PAECs, apelin 1 μM for 1 h
Protocol: as §3

[16] = tested on: HDAC4; conditions: PAH PAECs, apelin 1 μM for 1 h
Protocol: (§4) Western blotting was performed as previously described (eriosclerosis, thrombosis, and vascular biology 31, 814-820 (2011)). Each western blot is representative of three independent experiments done in triplicate. For the generation of cell lysates, lysis buffer (RIPA, Thermo Scientific) containing a protease and phosphatase inhibitor cocktail (Halt Protease and Phosphatase Inhibitor, Thermo Scientific) was used. Protein contents were measured using a detergent-compatible protein concentration assay (DC™ assay, Bio-Rad).

[17] = tested on: HDAC5; conditions: PAH PAECs, apelin 1 μM for 1 h
Protocol: as §4

[18] = MCT and SUGEN models, MC1568 50 mg per kg intraperitoneal daily, vs. vehicle (DMSO)
[19] = TMP269 intraperitoneal 50 mg/kg/day for two weeks
[20] = Tasquinimod oral gavage 10 mg/kg/day for two weeks

T2 sequence (Q9UQL6 whole entry): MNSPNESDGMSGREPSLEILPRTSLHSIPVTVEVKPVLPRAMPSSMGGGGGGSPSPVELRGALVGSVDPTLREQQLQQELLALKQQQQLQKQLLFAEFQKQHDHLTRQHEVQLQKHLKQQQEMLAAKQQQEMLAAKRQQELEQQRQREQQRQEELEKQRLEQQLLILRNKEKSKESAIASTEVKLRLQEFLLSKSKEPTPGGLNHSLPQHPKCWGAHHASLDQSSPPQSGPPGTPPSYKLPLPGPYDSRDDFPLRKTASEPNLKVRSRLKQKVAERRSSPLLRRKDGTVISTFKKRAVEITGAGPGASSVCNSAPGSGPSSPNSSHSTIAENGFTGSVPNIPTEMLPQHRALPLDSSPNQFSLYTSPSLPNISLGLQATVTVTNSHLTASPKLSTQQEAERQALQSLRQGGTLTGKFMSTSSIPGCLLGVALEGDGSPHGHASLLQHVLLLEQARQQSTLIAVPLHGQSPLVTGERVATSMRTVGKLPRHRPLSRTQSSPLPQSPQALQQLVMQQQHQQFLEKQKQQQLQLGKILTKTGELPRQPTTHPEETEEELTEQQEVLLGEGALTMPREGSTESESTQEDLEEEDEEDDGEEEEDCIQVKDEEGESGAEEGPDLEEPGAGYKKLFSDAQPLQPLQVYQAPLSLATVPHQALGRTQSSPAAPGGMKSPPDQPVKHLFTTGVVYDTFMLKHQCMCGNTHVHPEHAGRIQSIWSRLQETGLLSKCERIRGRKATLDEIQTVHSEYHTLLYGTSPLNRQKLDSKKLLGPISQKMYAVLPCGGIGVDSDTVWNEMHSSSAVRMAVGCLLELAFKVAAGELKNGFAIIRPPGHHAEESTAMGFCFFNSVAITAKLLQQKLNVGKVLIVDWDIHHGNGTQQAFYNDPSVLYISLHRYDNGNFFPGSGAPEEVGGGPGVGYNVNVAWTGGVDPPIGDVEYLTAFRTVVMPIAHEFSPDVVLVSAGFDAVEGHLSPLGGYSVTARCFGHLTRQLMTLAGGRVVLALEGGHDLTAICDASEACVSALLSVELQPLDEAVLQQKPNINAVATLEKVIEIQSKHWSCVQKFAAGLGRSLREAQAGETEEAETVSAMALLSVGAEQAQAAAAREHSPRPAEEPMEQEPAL
T1 sequence (P56524 whole entry): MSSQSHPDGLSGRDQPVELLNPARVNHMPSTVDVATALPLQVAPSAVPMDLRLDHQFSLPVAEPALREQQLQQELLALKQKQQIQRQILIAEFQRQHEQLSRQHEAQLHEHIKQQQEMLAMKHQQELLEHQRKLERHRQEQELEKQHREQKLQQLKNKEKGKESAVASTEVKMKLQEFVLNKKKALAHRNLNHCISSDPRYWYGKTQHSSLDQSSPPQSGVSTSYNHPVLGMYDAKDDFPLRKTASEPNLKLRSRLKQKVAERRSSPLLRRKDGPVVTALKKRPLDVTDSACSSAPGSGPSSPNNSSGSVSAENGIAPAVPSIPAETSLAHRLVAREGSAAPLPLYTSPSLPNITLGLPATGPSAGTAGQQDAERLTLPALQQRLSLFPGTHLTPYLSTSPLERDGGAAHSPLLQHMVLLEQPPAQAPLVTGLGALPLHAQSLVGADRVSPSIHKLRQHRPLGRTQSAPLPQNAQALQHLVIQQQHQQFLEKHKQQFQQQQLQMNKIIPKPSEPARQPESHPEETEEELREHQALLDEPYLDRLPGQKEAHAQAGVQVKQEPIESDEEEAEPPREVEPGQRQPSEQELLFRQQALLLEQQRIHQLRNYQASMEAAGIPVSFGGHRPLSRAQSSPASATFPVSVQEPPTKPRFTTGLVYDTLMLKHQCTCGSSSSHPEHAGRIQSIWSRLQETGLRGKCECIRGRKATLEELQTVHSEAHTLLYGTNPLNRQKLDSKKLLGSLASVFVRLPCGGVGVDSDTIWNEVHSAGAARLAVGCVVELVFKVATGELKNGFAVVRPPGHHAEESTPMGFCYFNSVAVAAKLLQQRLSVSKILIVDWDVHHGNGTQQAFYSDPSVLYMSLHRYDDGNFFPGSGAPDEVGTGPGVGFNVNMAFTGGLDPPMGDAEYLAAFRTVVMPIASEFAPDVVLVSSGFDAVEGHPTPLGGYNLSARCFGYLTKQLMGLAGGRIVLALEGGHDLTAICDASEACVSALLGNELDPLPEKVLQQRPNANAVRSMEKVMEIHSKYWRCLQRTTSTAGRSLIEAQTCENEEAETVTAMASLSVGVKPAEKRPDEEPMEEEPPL

Compound: Cn1c(/C=C/C(=O)NO)ccc1/C=C/C(=O)c1cccc(F)c1 [MC1568, (E)-3-(5-((E)-3-(3-fluorophenyl)-3-oxoprop-1-en-1-yl)-1-methyl-1H-pyrrol-2-yl)-N-hydroxyacrylamide]
- expression of Cx37, Cx40, and KLF2 [1]: significant increased expression
- expression of FGF2 [2]: significant downregulation
- PAH PAEC proliferation [3]: significant reduction
- PAH PAEC migration [4]: significant reduction
- myocardial fibrosis (trichrome staining of right ventricle, gross histology) ([5]; MCT and SUGEN groups, MC1568): no evidence of myocardial fibrosis
- muscularization of small arterioles [5, 18]: significantly decreased
- right ventricle to left ventricle+septum weight ratios [5, 18]: significant reduction
- right ventricular systolic pressures (RVSP) [5, 18]: significant decrease
- PCNA-positive proliferating vascular cells ([5]; MCT and SUGEN models, lungs, MC1568 50 mg per kg intraperitoneal daily, vs. control groups): significantly fewer
- MEF2 transcriptional targets (Cx37, Cx40 and KLF2) expression [6]: increased
- expression of FGF2 in the lungs [7]: significantly decreased
- cellular apoptosis as assessed by caspase 3 cleavage [8]: did not result in caspase activation
- degradation of HDAC4 [9]: degradation
- degradation of HDAC5 [10]: degradation
- selectivity for class IIa HDACs over other HDAC classes [11]: selective inhibition of class IIa HDACs, without affecting other HDAC classes

- degradation of HDAC4 [9]: degradation
- degradation of HDAC5 [10]: degradation
Compound: O=C(NCC1(c2nc(-c3ccccc3)cs2)CCOCC1)c1cccc(-c2noc(C(F)(F)F)n2)c1 [TMP269, N-((4-(4-phenylthiazol-2-yl)tetrahydro-2H-pyran-4-yl)methyl)-3-(5-(trifluoromethyl)-1,2,4-oxadiazol-3-yl)benzamide]
- expression of Cx37, Cx40, and KLF2 [1]: significantly increased
- PAH PAEC migration [4]: inhibited
- right ventricular hypertrophy (right ventricle to left ventricle plus septum weight ratios) [5, 19]: decreased
- right ventricular systolic pressures [5, 19]: significantly reduced

Compound: CC(/C=C/C(=O)NO)=C\[C@@H](C)C(=O)c1ccc(N(C)C)cc1 [TSA, trichostatin A]
- cellular apoptosis as assessed by caspase 3 cleavage [8]: marked induction of cellular apoptosis
- effect on the right ventricle [12]: detrimental injury to the right ventricle

Compound: COc1cccc2c1c(O)c(C(=O)N(C)c1ccc(C(F)(F)F)cc1)c(=O)n2C [Tasquinimod, 4-hydroxy-5-methoxy-N,1-dimethyl-2-oxo-N-[4-(trifluoromethyl)phenyl]-1,2-dihydroquinoline-3-carboxamide]
- right ventricular hypertrophy (right ventricle to left ventricle plus septum weight ratios) [5, 20]: decreased
- right ventricular systolic pressures [5, 20]: significantly reduced

Compound: CCCC(CCC)C(=O)O [valproic acid]
- effect on the right ventricle [12]: detrimental injury to the right ventricle

Compound: apelin
- MEF2 reporter activity [13]: significant augmentation
- cytoplasmic translocation of HDAC4-GFP [14]: robust cytoplasmic translocation
- cytoplasmic translocation of HDAC5-GFP [15]: robust cytoplasmic translocation
- phosphorylation of HDAC4 [16]: marked increase in phosphorylation
- phosphorylation of HDAC5 [17]: marked increase in phosphorylation
